≈ marks a conversion by molar mass, not a printed value. Calls of active or inactive are those of the source. No cut-off for these calls is given here.
Columns and labels:
[1] = test system: Mycobacterium tuberculosis; assay: Anti-tubercular activity against rifampicin, isoniazid, ethambutol and pyrazinamide-sensitive Mycobacterium tuberculosis H37Ra ATCC 25177 assessed as growth inhibition at 30 ug/ml by XRMA method relative to control; assay type: functional; conditions: read-out: GI
[2] = test system: Mycobacterium tuberculosis; assay: Anti-tubercular activity against rifampicin, isoniazid, ethambutol and pyrazinamide-sensitive Mycobacterium tuberculosis H37Ra ATCC 25177 assessed as growth inhibition at 10 ug/ml by XRMA method relative to control; assay type: functional; conditions: read-out: GI
[3] = test system: Mycobacterium tuberculosis; assay: Anti-tubercular activity against rifampicin, isoniazid, ethambutol and pyrazinamide-sensitive Mycobacterium tuberculosis H37Ra ATCC 25177 assessed as growth inhibition at 3 ug/ml by XRMA method relative to control; assay type: functional; conditions: read-out: GI
[4] = test system: Mycobacterium tuberculosis; assay: Anti-tubercular activity against rifampicin, isoniazid, ethambutol and pyrazinamide-sensitive dormant phage of Mycobacterium tuberculosis H37Ra ATCC 25177 by serial dilution method; assay type: functional, organism-based
[5] = test system: Mycobacterium tuberculosis; assay: Anti-tubercular activity against rifampicin, isoniazid, ethambutol and pyrazinamide-sensitive active phage of Mycobacterium tuberculosis H37Ra ATCC 25177 by serial dilution method; assay type: functional, organism-based
[6] = test system: Mycobacterium tuberculosis; assay: Anti-tubercular activity against rifampicin, isoniazid, ethambutol and pyrazinamide-sensitive dormant phage of Mycobacterium tuberculosis H37Ra ATCC 25177 infected in human THP1 cells by neutral red assay; assay type: functional, organism-based; conditions: H37Ra ATCC 25177, THP-1
[7] = test system: Mycobacterium tuberculosis; assay: Anti-tubercular activity against rifampicin, isoniazid, ethambutol and pyrazinamide-sensitive active phage of Mycobacterium tuberculosis H37Ra ATCC 25177 infected in human THP1 cells by neutral red assay; assay type: functional, organism-based; conditions: H37Ra ATCC 25177, THP-1
[8] = (§1) Cytotoxicity against human THP1 cells after 48 hrs by MTT assay; assay type: cell-based, THP-1; conditions: THP-1 cells
[9] = test system: THP-1; assay: as §1; assay type: cell-based; conditions: thp-1, 48 h
[10] = Cytotoxicity against human PANC1 cells after 48 hrs by MTT assay; assay type: cell-based, PANC-1
[11] = (§2) Cytotoxicity against human A549 cells after 48 hrs by MTT assay; assay type: cell-based; conditions: A549 cells
[12] = test system: A549; assay: as §2; assay type: cell-based; conditions: a549, 48 h
[13] = test system: Escherichia coli; assay: Antibacterial activity against Escherichia coli […] assessed as growth inhibition at 30 ug/ml relative to control; assay type: functional; conditions: read-out: GI
[14] = test system: Pseudomonas fluorescens; assay: Antibacterial activity against Pseudomonas fluorescens ATCC 13525 assessed as growth inhibition at 30 ug/ml relative to control; assay type: functional; conditions: read-out: GI
[15] = test system: Staphylococcus aureus; assay: Antibacterial activity against Staphylococcus aureus ATCC 29213 assessed as growth inhibition at 30 ug/ml relative to control; assay type: functional
[16] = test system: Bacillus subtilis; assay: Antibacterial activity against Bacillus subtilis ATCC 23857 assessed as growth inhibition at 30 ug/ml relative to control; assay type: functional; conditions: read-out: GI

SMILES: COC(=O)CC[C@@H](C)[C@H]1CC[C@H]2[C@H]3[C@H]([C@H](n4nnc5ccccc54)C(=O)[C@]12C)[C@@]1(C)CC[C@@H](OC(C)=O)C[C@H]1C[C@H]3OC(C)=O
- inhibition of growth at 30 µg/mL [1]: 96%
- inhibition of growth at 10 µg/mL [2]: 94%
- inhibition of growth at 3 µg/mL [3]: 76%
- IC50 [4]: 1.27 µg/mL (≈ 2.04 µM)
- IC90 [4]: 7.15 µg/mL (≈ 11.5 µM)
- IC50 [5]: 1.08 µg/mL (≈ 1.74 µM)
- IC90 [5]: 9.79 µg/mL (≈ 15.7 µM)
- IC50 [6]: 1.65 µg/mL (≈ 2.65 µM)
- IC90 [6]: 8.16 µg/mL (≈ 13.1 µM)
- IC50 [7]: 1.11 µg/mL (≈ 1.79 µM)
- IC90 [7]: 8.6 µg/mL (≈ 13.8 µM)
- GI50 at 48 h [8]: 29.9 µg/mL (≈ 48.1 µM)
- GI90 [9]: > 100 µg/mL
- GI50 at 48 h ([10]; PANC-1 cells): 50 µg/mL (≈ 80.4 µM)
- GI90 ([10]; panc-1, 48 h): > 100 µg/mL
- GI50 at 48 h [11]: 20 µg/mL (≈ 32.2 µM)
- GI90 [12]: > 100 µg/mL
- inhibition of growth at 30 µg/mL [13]: 33.8%
- inhibition of growth at 30 µg/mL [14]: 46.8%
- growth inhibition (GI) [15]: inactive
- inhibition of growth at 30 µg/mL [16]: 8.94%

Reference: ChEMBL document CHEMBL3616451, “Design and synthesis of 11α-substituted bile acid derivatives as potential anti-tuberculosis agents” (Bioorg Med Chem Lett, 2015)
